The record followed here is patent US20230114728A1 (Venatorx Pharmaceuticals, Inc., priority 2019, published 2023).

Structures are written as SMILES. Converted amounts (≈) assume the structure as drawn.

The target of one test is T1, E. coli K12 PBP3 (Escherichia coli, UniProt P0AD68).
T1 construct: made in house
The test is described as follows: biochemical. The format is binding. The source says: Example I: Experimental Method for Penicillin-Binding Protein Binding Assays with Bocillin-FL Via Fluorescence Polarization
To determine the ability of boronic acid-based test PBP inhibitors to bind Penicillin Binding Proteins (PBPs), Bocillin-FL (fluorescently-labeled penicillin V; ThermoFisher Scientific) was used in a fluorescence polarization (FP) competition binding assay to assess inhibitor binding to PBP2, PBP3 or PBP4 from Escherichia coli (K12), PBP3 from Pseudomonas aeruginosa (PA01), PBP1a, PBP2 and PBP3 from Acinetobacter baumannii (ATCC 19606), and PBP2 from Neiserria gonorrheae (FA19). PBPs were cloned and purified as described previously (E. coli PBPs, King, D. T, et al., ACS Infectious Diseases 2015, 1, 175-184; P. aeruginosa PBP3, Han et. al., PNAS 2010, 107 (51), 22002-22007; A. baumannii PBPs, Penwell et. al., Antimicrob. Agents Chemother. 2015, 59 (3), 1680-1689; N. gonorrhoeae PBP2, Singh et. al., J Biol. Chem. 2019, 294 (38), 14020-14032). To establish assay conditions for competition binding, enzyme titration/saturation binding experiments were initially performed. Bocillin-FL was prepared at 0.2 μM in a buffer comprised of 50 mM Hepes (pH 8.0), 300 mM NaCl and 5% (v/v) glycerol for reactions with E. coli, P. aeruginosa and N. gonorrhoeae PBPs, and 25 mM Tris (pH 8.0), 200 mM NaCl and 10% (v/v) glycerol and 0.005% (v/v) Tween 20 for reactions with A. baumannii PBPs. Saturation binding was performed by mixing 40 μl of PBP solutions ranging in concentrations from 0-24 μM with 40 μl of the 0.2 μM Bocillin-FL solution, in individual wells of a black 384-well microplate. FP was measured immediately upon mixing (Excitation, 490 nm; Emission, 520 nm; g-factor, 0.96), using a Cytation3 (BioTek) microplate reader and measured continuously for up to 120 minutes. […] The competition binding assay (80 μl final volume) was validated using beta-lactams and PBPs at final concentrations of: 1.5 μM, E. coli PBP3; 0.75 μM, P. aeruginosa PBP3; 1 μM A. baumannii PBP1a; 2.5 μM A. baumannii PBP2; 0.2 μM A. baumannii PBP3; and […] N. gonorrhoeae PBP2. Bocillin-FL was at 0.1 μM (0.05 μM with A. baumannii PBP1a) and beta-lactam concentrations ranged from 0-1000 μM. […] Bocillin-FL was added and the FP immediately measured for up to 60 minutes (90 minutes for E. coli PBP2). […] The beta-lactam potency was reported as the concentration of beta-lactam required to reduce the amount of PBP bound-Bocillin-FL by 50% (EC50). […] Binding assays for boronic acid PBP inhibitors were performed in an identical fashion for the respective PBPs

The target in another test is T2, P. aeruginosa PBP3 (Pseudomonas aeruginosa, UniProt G3XD46).
T2 construct: made in house
T2 sequence (G3XD46 whole entry): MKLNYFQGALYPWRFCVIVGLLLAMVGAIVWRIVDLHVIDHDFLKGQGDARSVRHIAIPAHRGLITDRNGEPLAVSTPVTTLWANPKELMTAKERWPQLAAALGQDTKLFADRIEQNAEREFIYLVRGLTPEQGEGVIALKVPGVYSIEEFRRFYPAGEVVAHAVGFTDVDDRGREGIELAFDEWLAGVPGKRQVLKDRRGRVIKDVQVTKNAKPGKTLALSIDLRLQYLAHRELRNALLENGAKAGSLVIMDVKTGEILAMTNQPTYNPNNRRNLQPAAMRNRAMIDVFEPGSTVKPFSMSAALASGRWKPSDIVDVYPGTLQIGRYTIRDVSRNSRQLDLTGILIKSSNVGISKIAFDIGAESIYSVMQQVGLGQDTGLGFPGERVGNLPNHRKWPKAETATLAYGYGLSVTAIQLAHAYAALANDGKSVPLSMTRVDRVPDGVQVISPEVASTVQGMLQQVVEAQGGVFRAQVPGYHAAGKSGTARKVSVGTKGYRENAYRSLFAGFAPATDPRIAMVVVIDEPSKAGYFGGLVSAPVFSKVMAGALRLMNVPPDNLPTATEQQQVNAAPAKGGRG
Nature of the test: Bocillin-FL fluorescence polarization competition binding assay, P. aeruginosa PBP3. Particulars: fluorescence polarization competition binding assay using Bocillin-FL. An outline of the steps: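 Inhibitor competition with Bocillin-FL for P. aeruginosa PBP3 was followed by fluorescence polarization on a Cytation3 (BioTek) reader, using g-factor 0.96, 490 nm excitation and 520 nm emission. The enzyme was at 0.75 μM and the probe at 0.1 μM in Hepes/NaCl/glycerol buffer, 80 μl per well. FP was recorded immediately after probe addition for up to 60 minutes. Potency was expressed as EC50, the concentration that reduces bound probe by 50%.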

The test system of another test is A. baumannii ATCC 19606. Nature of the test: Broth microdilution MIC in CAMHB. Particulars: Acinetobacter baumannii, ATCC19606; MHB; read-out: Minimum Inhibitory Concentration, A. baumannii ATCC 19606. The format is cell-based. An outline of the steps:
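Colonies from cation-adjusted Mueller Hinton agar are grown in broth (3-5 h, 37° C), adjusted by OD600, and added at 2-8×10^5 CFU/mL to 2-fold compound dilutions. After 16-20 h at 37° C, the lowest concentration without growth is taken as MIC.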
For orientation: Dilution methods test growth across graded concentrations, often in twofold steps.

Another test concerns E. coli 901C. Nature of the test: Broth microdilution MIC in CAMHB. The format is cell-based. Particulars: Escherichia coli; MHB; hyper-permeable E. coli 901C; read-out: Minimum Inhibitory Concentration, E. coli 901C. An outline of the steps: (§1)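 Standard CLSI-style microdilution in cation-adjusted Mueller Hinton broth, 2-fold dilution series, incubated 16-20 h at 37° C; endpoint was visual absence of growth.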

For a further test, the system named is E. coli AG100A. The test is described as follows: Broth microdilution MIC in CAMHB. The test is classed as cell-based. Particulars: Escherichia coli, read-out: Minimum Inhibitory Concentration, E. coli AG100A. An outline of the steps:
as §1

Another test deals with E. coli AG100. The test is described as follows: Broth microdilution MIC in CAMHB. The format is cell-based. Particulars: Escherichia coli; MHB; wild-type parent strain E. coli AG100; read-out: Minimum Inhibitory Concentration, E. coli AG100. An outline of the steps: as §1
In another test the test system is E. coli ATCC 25922. The test is described as follows: Broth microdilution MIC in CAMHB. The test is classed as cell-based. Particulars: Escherichia coli, ATCC25922; MHB; E. coli ATCC 25922; read-out: Minimum Inhibitory Concentration, E. coli 25922. An outline of the steps:
as §1

The subject of another test is E. coli D22. Nature of the test: Broth microdilution MIC in CAMHB. The format is cell-based. Particulars: Escherichia coli; MHB; hyper-permeable E. coli D22; read-out: Minimum Inhibitory Concentration, E. coli D22. An outline of the steps: as §1
For test [1], the system named is K. pneumoniae 848844 producing SHV-11 and KPC-2. Nature of the test: Broth microdilution MIC in CAMHB. The test is classed as cell-based. Particulars: Klebsiella pneumoniae, read-out: Minimum Inhibitory Concentration, K. pneumoniae 848844. The method in brief:
as §1

Test [2] deals with K. pneumoniae SI-117 producing VIM-1. The test is described as follows: Broth microdilution MIC in CAMHB. The test is classed as cell-based. Particulars: Klebsiella pneumoniae, read-out: Minimum Inhibitory Concentration, K. pneumoniae SI-117. An outline of the steps: as §1
In test [3] the test system is K. pneumoniae UMM producing SHV-5 and KPC-2. The test is described as follows: Broth microdilution MIC in CAMHB. The test is classed as cell-based. Particulars: Klebsiella pneumoniae, read-out: Minimum Inhibitory Concentration, K. pneumoniae UMM. An outline of the steps: as §1
Test [4] deals with P. aeruginosa (ΔmexAB-oprM). The test is described as follows: Broth microdilution MIC in CAMHB. The test is classed as cell-based. Particulars: Pseudomonas aeruginosa, read-out: Minimum Inhibitory Concentration, P. aeruginosa ΔmexAB-OprM. The method in brief:
as §1

The test system of a further test is P. aeruginosa ATCC 27853. The test is described as follows: Broth microdilution MIC in CAMHB. The format is cell-based. Particulars: Pseudomonas aeruginosa, ATCC27853; MHB; read-out: Minimum Inhibitory Concentration, P. aeruginosa ATCC 27853. An outline of the steps:
as §1

The next test concerns P. aeruginosa ATCC 35151. The test is described as follows: Broth microdilution MIC in CAMHB. The format is cell-based. Particulars: Pseudomonas aeruginosa, ATCC35151; MHB; hyper-permeable strain; read-out: Minimum Inhibitory Concentration, P. aeruginosa ATCC 35151. An outline of the steps:
as §1

T1 sequence (P0AD68 1-577): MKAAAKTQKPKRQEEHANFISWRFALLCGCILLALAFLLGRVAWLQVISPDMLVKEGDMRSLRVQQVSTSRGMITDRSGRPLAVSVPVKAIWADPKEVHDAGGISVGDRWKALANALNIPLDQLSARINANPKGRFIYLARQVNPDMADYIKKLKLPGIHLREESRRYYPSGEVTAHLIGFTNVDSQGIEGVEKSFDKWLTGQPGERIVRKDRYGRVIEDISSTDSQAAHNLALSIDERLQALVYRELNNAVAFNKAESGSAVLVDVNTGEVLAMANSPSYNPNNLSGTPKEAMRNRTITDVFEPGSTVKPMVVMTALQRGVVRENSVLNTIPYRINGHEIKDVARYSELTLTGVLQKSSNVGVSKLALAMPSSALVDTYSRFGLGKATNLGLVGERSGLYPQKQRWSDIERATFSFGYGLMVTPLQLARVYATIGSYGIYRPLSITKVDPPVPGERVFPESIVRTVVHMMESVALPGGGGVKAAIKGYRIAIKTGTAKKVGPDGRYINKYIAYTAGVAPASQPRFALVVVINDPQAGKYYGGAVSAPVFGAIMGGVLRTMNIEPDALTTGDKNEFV

In general, EC50 refers to the concentration giving half of the maximal effect. Read a high EC50 as a less potent agent. `NCCN1CCCN(C(=O)N[C@@H](C(=O)N[C@H]2Cc3cccc(C(=O)O)c3OB2O)c2c(F)cc(O)cc2F)C1=O` (single isomer, unassigned) [Example 230] had an EC50 on E. coli K12 PBP3 of 30 to 500 µM. Moreover, at P. aeruginosa PBP3, the “P. aeruginosa PBP3 Potency” value is “C (C represents a potency between 10 and 30 μM)”. The MIC in the test with A. baumannii ATCC 19606, in the test on E. coli 901C, in the test with E. coli AG100A, with E. coli AG100, in the test with E. coli ATCC 25922 and in the test with E. coli D22 was greater than 128 µg/mL throughout. The MIC in test [1] was greater than 128 µg/mL; in test [2], 32 to 64 µg/mL (≈ 57 to 114 µM); in test [3], 2 to 4 µg/mL (≈ 3.56 to 7.13 µM); in test [4], 32 to 64 µg/mL (≈ 57 to 114 µM); in the test on P. aeruginosa ATCC 27853 it was greater than 128 µg/mL; in the test on P. aeruginosa ATCC 35151, 2 to 4 µg/mL (≈ 3.56 to 7.13 µM).
Turning to `CCN1C[C@H](C)N(C(=O)NC(C(=O)N[C@H]2Cc3cccc(C(=O)O)c3OB2O)c2c(F)cc(O)cc2F)C(=O)C1=O` (stereo partly drawn) [Example 232, (3R)-3-(2-(2,6-difluoro-4-hydroxyphenyl)-2-((S)-4-ethyl-6-methyl-2,3-dioxopiperazine-1-carboxamido)acetamido)-2-hydroxy-3,4-dihydro-2H-benzo[e][1,2]oxaborinine-8-carboxylic acid], the concentration for a half-maximal effect (EC50) on E. coli K12 PBP3 is less than 30 µM. Further, on P. aeruginosa PBP3, the “P. aeruginosa PBP3 Potency” value is “D (D represents a potency <10 μM)”. The MIC was greater than 128 µg/mL in the test on A. baumannii ATCC 19606; 32 to 64 µg/mL (≈ 55.7 to 111 µM) in the test with E. coli 901C; 32 to 64 µg/mL (≈ 55.7 to 111 µM) with E. coli AG100A; 32 to 64 µg/mL (≈ 55.7 to 111 µM) in the test on E. coli AG100; 8 to 16 µg/mL (≈ 13.9 to 27.9 µM) in the test on E. coli ATCC 25922; 32 to 64 µg/mL (≈ 55.7 to 111 µM) in the test on E. coli D22. Further, the MIC is 8 to 16 µg/mL (≈ 13.9 to 27.9 µM) in test [1]; 2 to 4 µg/mL (≈ 3.48 to 6.96 µM) in test [2]; less than 0.25 µg/mL in test [3]; 8 to 16 µg/mL (≈ 13.9 to 27.9 µM) in [4]; greater than 128 µg/mL in the test with P. aeruginosa ATCC 27853; 2 to 4 µg/mL (≈ 3.48 to 6.96 µM) with P. aeruginosa ATCC 35151.
At E. coli K12 PBP3, `C[C@H]1CN(CCF)C(=O)C(=O)N1C(=O)NC(C(=O)N[C@H]1Cc2cccc(C(=O)O)c2OB1O)c1c(F)cc(O)cc1F` (stereo partly drawn) [Example 233, (3R)-3-(2-(2,6-difluoro-4-hydroxyphenyl)-2-((S)-4-(2-fluoroethyl)-6-methyl-2,3-dioxopiperazine-1-carboxamido)acetamido)-2-hydroxy-3,4-dihydro-2H-benzo[e][1,2]oxaborinine-8-carboxylic acid] had an EC50 of less than 30 µM. Besides, at P. aeruginosa PBP3, the “P. aeruginosa PBP3 Potency” value is on record as “D (D represents a potency <10 μM)”. Also, the MIC in the test on A. baumannii ATCC 19606 was greater than 128 µg/mL; in the test on E. coli 901C, 32 to 64 µg/mL (≈ 54 to 108 µM); in the test on E. coli AG100A, 32 to 64 µg/mL (≈ 54 to 108 µM); in the test with E. coli AG100, 32 to 64 µg/mL (≈ 54 to 108 µM); in the test with E. coli ATCC 25922, 8 to 16 µg/mL (≈ 13.5 to 27 µM); with E. coli D22 it was 32 to 64 µg/mL (≈ 54 to 108 µM). For the same compound, the MIC in [1] is 8 to 16 µg/mL (≈ 13.5 to 27 µM); in [2] it was 2 to 4 µg/mL (≈ 3.38 to 6.75 µM); in test [3] it was less than 0.25 µg/mL; in [4], greater than 128 µg/mL; with P. aeruginosa ATCC 27853, greater than 128 µg/mL; with P. aeruginosa ATCC 35151 it was 8 to 16 µg/mL (≈ 13.5 to 27 µM).
In turn, `C[C@H]1CN(CCN)C(=O)C(=O)N1C(=O)NC(C(=O)N[C@H]1Cc2cccc(C(=O)O)c2OB1O)c1c(F)cc(O)cc1F` (stereo partly drawn) [Example 234, (3R)-3-(2-((S)-4-(2-aminoethyl)-6-methyl-2,3-dioxopiperazine-1-carboxamido)-2-(2,6-difluoro-4-hydroxyphenyl)acetamido)-2-hydroxy-3,4-dihydro-2H-benzo[e][1,2]oxaborinine-8-carboxylic acid] had a concentration for a half-maximal effect (EC50) on E. coli K12 PBP3 of less than 30 µM. For the same compound, the “P. aeruginosa PBP3 Potency” value at P. aeruginosa PBP3 was “D (D represents a potency <10 μM)”. Further, the MIC is greater than 128 µg/mL in the test with A. baumannii ATCC 19606; 32 to 64 µg/mL (≈ 54.3 to 109 µM) in the test with E. coli 901C; 32 to 64 µg/mL (≈ 54.3 to 109 µM) with E. coli AG100A; 32 to 64 µg/mL (≈ 54.3 to 109 µM) in the test with E. coli AG100; 8 to 16 µg/mL (≈ 13.6 to 27.2 µM) in the test with E. coli ATCC 25922; 8 to 16 µg/mL (≈ 13.6 to 27.2 µM) with E. coli D22. Besides, the MIC in test [1] was 8 to 16 µg/mL (≈ 13.6 to 27.2 µM); in [2] it was 2 to 4 µg/mL (≈ 3.39 to 6.79 µM); in [3] it was 0.5 to 1 µg/mL (≈ 0.848 to 1.7 µM); in [4], 8 to 16 µg/mL (≈ 13.6 to 27.2 µM); in the test on P. aeruginosa ATCC 27853, greater than 128 µg/mL; in the test on P. aeruginosa ATCC 35151, 2 to 4 µg/mL (≈ 3.39 to 6.79 µM).
